Here are results for 30 compounds from patent US20150031674A1, “SERINE/THREONINE KINASE INHIBITORS” (GENENTECH, INC., priority 2013, published 2015).

The target in this test is human recombinant PAK1-KD protein (Homo sapiens, UniProt Q13153). The test is described as follows: PAK1-KD (Kinase Domain) IC50 Zlyte Assay (FRET peptide substrate phosphorylation). The conditions noted are these: Z'-LYTE, Biological Example 1.
Sequence of human recombinant PAK1-KD protein (Q13153 270-521 limits assumed): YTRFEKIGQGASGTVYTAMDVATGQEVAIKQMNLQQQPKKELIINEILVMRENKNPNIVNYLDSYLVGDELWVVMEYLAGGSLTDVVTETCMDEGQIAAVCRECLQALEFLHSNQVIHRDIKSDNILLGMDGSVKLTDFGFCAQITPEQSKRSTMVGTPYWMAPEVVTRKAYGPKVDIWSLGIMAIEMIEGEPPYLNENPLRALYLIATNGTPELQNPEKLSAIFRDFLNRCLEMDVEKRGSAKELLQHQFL
From the text: PAK1-KD (Kinase Domain) IC50 Zlyte Assay Protocol
Activity of human recombinant PAK1-KD protein may be assessed in vitro by assay of the phosphorylation of a FRET peptide substrate. Catalytically active human recombinant PAK1-KD protein is obtained by purification from Tini cells infected with a human PAK1-KD recombinant baculovirus expression vector.
The activity/inhibition of PAK1-KD was estimated by measuring the phosphorylation of a FRET peptide substrate (Ser/Thr19) labeled with Coumarin and Fluorescein using Z′-LYTE™ assay (Invitrogen). The peptide substrate is a consensus sequence ([sequence]) based on various PAK substrates reported in the scientific literature. […] Incubations were carried out at 22° C. in black polypropylene 384-well plates (Corning Costar).
Take `CNc1ncc2cc(-c3ccc(-c4cccc(C)n4)cc3C)c(=O)n(CCN3CCOCC3)c2n1` [Example I-165, 2-(Methylamino)-6-[2-methyl-4-(6-methyl-2-pyridyl)phenyl]-8-(2-morpholinoethyl)pyrido[2,3-d]pyrimidin-7-one]: the Ki – broadly, a measure of affinity in units of concentration, obtained from inhibition or displacement – was determined as 0.0167 µM. Regarding `CCc1cc(-c2cccc(C)n2)ccc1-c1cc2cnc(NC3COC3)nc2n(C[C@H]2CNCCO2)c1=O` [Example I-193, 6-[2-ethyl-4-(6-methyl-2-pyridyl)phenyl]-8-[[(2R)-morpholin-2-yl]methyl]-2-(oxetan-3-ylamino)pyrido[2,3-d]pyrimidin-7-one], the Ki stood at 0.0208 µM. With `CNc1ncc2cc(-c3ccc(-c4cncc(C)n4)cc3Cl)c(=O)n(CCC3CCNC3=O)c2n1` (single isomer, unassigned) [Example I-103, 6-[2-Chloro-4-(6-methylpyrazin-2-yl)phenyl]-2-(methylamino)-8-[2-(2-oxopyrrolidin-3-yl)ethyl]pyrido[2,3-d]pyrimidin-7-one] the figure was 0.019 µM; with `Cc1cncc(-c2ccc(-c3cc4cnc(NCC(F)F)nc4n(CCOC4CNC4)c3=O)c(Cl)c2)n1` [Example I-47, 8-[2-(azetidin-3-yloxy)ethyl]-6-[2-chloro-4-(6-methylpyrazin-2-yl)phenyl]-2-(2,2-difluoroethylamino)pyrido[2,3-d]pyrimidin-7-one], 0.0252 µM; with `CNc1ncc2cc(-c3ccc(-c4cncc(C)n4)cc3Cl)c(=O)n(CCN3CCOCC3)c2n1` [Example I-158, 6-[2-chloro-4-(6-methylpyrazin-2-yl)phenyl]-2-(methylamino)-8-(2-morpholinoethyl)pyrido[2,3-d]pyrimidin-7-one], 0.0782 µM. The result for `CNc1ncc2cc(-c3ccc(-c4cncc(C)n4)cc3Cl)c(=O)n(CC(=O)N3C[C@@H]4C[C@H]3CN4)c2n1` [Example I-155, 6-[2-Chloro-4-(6-methylpyrazin-2-yl)phenyl]-8-[2-[(1S,4S)-2 5-diazabicyclo[2.2.1]heptan-2-yl]-2-oxo-ethyl]-2-(methylamino)pyrido[2,3-d]pyrimidin-7-one] reads 0.0392 µM; that for `CCNc1ncc2cc(-c3ccc(-c4cncc(C)n4)cc3Cl)c(=O)n(CC(C)OC3CNC3)c2n1` (single isomer, unassigned) [Example I-92], 0.0476 µM.

Take `CNc1ncc2cc(-c3ccc(-c4cccc(CO)n4)cc3Cl)c(=O)n(C[C@@H]3CNCCO3)c2n1` [Example I-195, 6-[2-Chloro-4-[6-(hydroxymethyl)-2-pyridyl]phenyl]-2-(methylamino)-8-[[(2S)-morpholin-2-yl]methyl]pyrido[2,3-d]pyrimidin-7-one]: the inhibition constant Ki is 0.0354 µM. The result for `CCNc1ncc2cc(-c3ccc(-c4cncc(C)n4)cc3Cl)c(=O)n(CC(O)CN)c2n1` (stereo not drawn) [Example I-24, 8-(3-amino-2-hydroxy-propyl)-6-[2-chloro-4-(6-methylpyrazin-2-yl)phenyl]-2-(ethylamino)pyrido[2,3-d]pyrimidin-7-one] reads 0.0273 µM; that for `CCNc1ncc2cc(-c3ccc(-c4cncc(C)n4)cc3Cl)c(=O)n(C3CCN(C(=O)CN)CC3)c2n1` [Example I-29, 8-(1-(2-Aminoacetyl)piperidin-4-yl)-6-(2-chloro-4-(6-methylpyrazin-2-yl)phenyl)-2-(ethylamino)pyrido[2,3-d]pyrimidin-7(8H)-one], 0.0171 µM; that for `CNc1ncc2cc(-c3ccc(-c4cccc(C)n4)cc3Cl)c(=O)n(CC3(C#N)CCNCC3)c2n1` [Example I-169, 4-[[6-[2-chloro-4-(6-methyl-2-pyridyl)phenyl]-2-(methylamino)-7-oxo-pyrido[2,3-d]pyrimidin-8-yl]methyl]piperidine-4-carbonitrile], 0.012 µM. With `Cc1cncc(-c2ccc(-c3cc4cnc(NC5COC5)nc4n(C[C@@H]4CNCCO4)c3=O)c(Cl)c2)n1` [Example I-149, 6-[2-Chloro-4-(6-methylpyrazin-2-yl)phenyl]-8-[[(2S)-morpholin-2-yl]methyl]-2-(oxetan-3-ylamino)pyrido[2,3-d]pyrimidin-7-one] the figure was 0.009 µM.

Take `CCNc1ncc2cc(-c3ccc(-c4cncc(C)n4)cc3Cl)c(=O)n(C(C)COC3CNC3)c2n1` (single isomer, unassigned) [Example I-119, 8-[2-(azetidin-3-yloxy)-1-methyl-ethyl]-6-[2-chloro-4-(6-methylpyrazin-2-yl)phenyl]-2-(ethylamino)pyrido[2,3-d]pyrimidin-7-one]: the inhibition constant Ki stood at 0.077 µM. For `Cc1cccc(-c2ccc(-c3cc4cnc(NC5COC5)nc4n(CC(=O)N4CCNCC4)c3=O)c(Cl)c2)n1` [Example I-94, 6-[2-Chloro-4-(6-methyl-2-pyridyl)phenyl]-2-(oxetan-3-ylamino)-8-(2-oxo-2-piperazin-1-yl-ethyl)pyrido[2,3-d]pyrimidin-7-one], the Ki worked out at 0.0159 µM. The result for `CNc1ncc2cc(-c3ccc(-c4cccc(C)n4)cc3Cl)c(=O)n(CCOCCN)c2n1` [Example I-96, 8-[2-(2-Aminoethoxy)ethyl]-[2-chloro-4-(6-methyl-2-pyridyl)phenyl]-2-(methylamino)pyrido[2,3-d]pyrimidin-7-one] reads 0.0014 µM.

`CNc1ncc2cc(-c3ccc(-c4cccc(C)n4)cc3C)c(=O)n(CC(=O)N3CCNCC3)c2n1` [Example I-95, 2-(Methylamino)-6-[2-methyl-4-(6-methyl-2-pyridyl)phenyl]-8-(2-oxo-2-piperazin-1-yl-ethyl)pyrido[2,3-d]pyrimidin-7-one]: the Ki was 0.0273 µM. In the case of `CCNc1ncc2cc(-c3ccc(-c4cncc(C)n4)cc3Cl)c(=O)n(CCC(N)=O)c2n1` [Example I-69, 3-[6-[2-chloro-4-(6-methylpyrazin-2-yl)phenyl]-2-(ethylamino)-7-oxo-pyrido[2,3-d]pyrimidin-8-yl]propanamide], the inhibitory constant (Ki) was determined as 0.103 µM. The result for `CNc1ncc2cc(-c3ccc(-c4cncc(C)n4)cc3Cl)c(=O)n(CC(=O)N(C)C)c2n1` [Example I-86, 2-[6-[2-Chloro-4-(6-methylpyrazin-2-yl)phenyl]-2-(methylamino)-7-oxo-pyrido[2,3-d]pyrimidin-8-yl]-N,N-dimethyl-acetamide] reads 0.123 µM.

Turning to `Cc1cncc(-c2ccc(-c3cc4cnc(N)nc4n(CCCCCN)c3=O)c(Cl)c2)n1` [Example I-88, 2-Amino-8-(5-aminopentyl)-6-[2-chloro-4-(6-methylpyrazin-2-yl)phenyl]pyrido[2,3-d]pyrimidin-7-one], the Ki is 0.313 µM.

On to `CNc1ncc2cc(-c3ccc(-c4cccc(C)n4)cc3Cl)c(=O)n(CC3CNCCS3(=O)=O)c2n1` (single isomer, unassigned) [I-197 Isomer B, 6-[2-chloro-4-(6-methyl-2-pyridyl)phenyl]-8-[(1,1-dioxo-1 4-thiazinan-2-yl)methyl]-2-(methylamino)pyrido[2,3-d]pyrimidin-7-one], for which the inhibition constant Ki is 0.0316 µM. `CCNc1ncc2cc(-c3ccc(-c4cncc(C)n4)cc3Cl)c(=O)n(CC3(O)CCNCC3)c2n1` [Example I-54, 6-(2-Chloro-4-(6-methylpyrazin-2-yl)phenyl)-2-(ethylamino)-8-((4-hydroxypiperidin-4-yl)methyl)pyrido[2,3-d]pyrimidin-7(8H)-one]: the inhibitory constant (Ki) amounted to 0.107 µM. For the compound `Cc1cccc(-c2ccc(-c3cc4cnc(NC5COC5)nc4n(CC(=O)N4CCNCC4)c3=O)c(C)c2)n1` [Example I-106, 6-[2-Methyl-4-(6-methyl-2-pyridyl)phenyl]-2-(oxetan-3-ylamino)-8-(2-oxo-2-piperazin-1-yl-ethyl)pyrido[2,3-d]pyrimidin-7-one], the Ki came to 0.0545 µM. With `Cc1cccc(-c2ccc(-c3cc4cnc(NC(C)C)nc4n(CCN4CCNCC4)c3=O)c(Cl)c2)n1` [Example I-68, 6-(2-Chloro-4-(6-methylpyridin-2-yl)phenyl)-2-(isopropylamino)-8-(2-(piperazin-1-yl)ethyl)pyrido[2,3-d]pyrimidin-7(8H)-one] the figure was 0.0016 µM.

Turning to `CCNc1ncc2cc(-c3ccc(-c4cc(C)cnn4)cc3Cl)c(=O)n(C[C@H]3CC[C@H](N)CC3)c2n1` [Example I-77, 8-(((1R,4R)-4-Aminocyclohexyl)methyl)-6-(2-chloro-4-(5-methylpyridazin-3-yl)phenyl)-2-(ethylamino)pyrido[2,3-d]pyrimidin-7(8H)-one], the Ki is 0.0307 µM. With `CCNc1ncc2cc(-c3ccc(-c4cncc(C)n4)cc3Cl)c(=O)n(CCCCO)c2n1` [Example I-36, 6-[2-Chloro-4-(6-methylpyrazin-2-yl)phenyl]-2-(ethylamino)-8-(4-hydroxybutyl)pyrido[2,3-d]pyrimidin-7-one] the figure was 0.0718 µM.

As to `CCNc1ncc2cc(-c3ccc(-c4cncc(C)n4)cc3Cl)c(=O)n(CCN3CCN(C)CC3)c2n1` [Example I-27, 6-(2-Chloro-4-(6-methylpyrazin-2-yl)phenyl)-2-(ethylamino)-8-(2-(4-methylpiperazin-1-yl)ethyl)pyrido[2,3-d]pyrimidin-7(8H)-one], the Ki came to 0.0476 µM. With `CCNc1ncc2cc(-c3ccc(-c4cncc(C)n4)cc3Cl)c(=O)n(C3COC4(CNC4)C3)c2n1` (stereo not drawn) [Example I-58, 6-(2-Chloro-4-(6-methylpyrazin-2-yl)phenyl)-2-(ethylamino)-8-(5-oxa-2-azaspiro[3.4]octan-7-yl)pyrido[2,3-d]pyrimidin-7(8H)-one] the figure was 0.0711 µM. With `CCNc1ncc2cc(-c3ccc(-c4cccc(C)n4)cc3Cl)c(=O)n(CC(=O)N3CCNCC3)c2n1` [Example I-34, 6-[2-Chloro-4-(6-methyl-2-pyridyl)phenyl]-2-(ethylamino)-8-(2-oxo-2-piperazin-1-yl-ethyl)pyrido[2,3-d]pyrimidin-7-one], the Ki came to 0.004 µM. The result for `Cc1cccc(-c2ccc(-c3cc4cnc(NC5COC5)nc4n(CCCS(N)(=O)=O)c3=O)c(C)c2)n1` [Example I-161, 3-[6-[2-methyl-4-(6-methyl-2-pyridyl)phenyl]-2-(oxetan-3-ylamino)-7-oxo-pyrido[2,3-d]pyrimidin-8-yl]propane-1-sulfonamide] reads 0.022 µM; that for `CCNc1ncc2cc(-c3ccc(-c4cccc(C)n4)cc3C)c(=O)n(CC(=O)N3CCNCC3)c2n1` [Example I-93, 2-(Ethylamino)-6-[2-methyl-4-(6-methyl-2-pyridyl)phenyl]-8-(2-oxo-2-piperazin-1-yl-ethyl)pyrido[2,3-d]pyrimidin-7-one], 0.0291 µM.
